Measured values: the supplement of paper PMC10307832

Columns and labels:
Experiment in all cases: relative viability (nuclei count vs DMSO), 5 days (fraction); higher = more cells survive
[1] = compound: C1=CC=C(C(=C1)C2=CC=C(C=C2)C3=CSC4=C3C(=C(C(=O)N4)C#N)O)O + C[C@@H](Oc1cc(-c2cnn(C3CCNCC3)c2)cnc1N)c1c(Cl)ccc(F)c1Cl [Crizotinib] (partner 1 µM)
Outline: (§1)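 Relative viability is defined as nuclei in treated wells over nuclei in vehicle wells. Duplicate plates were run and medians reported. Lung cancer cell lines in 1536-well plates were dosed by pin tool one day after seeding, with one drug or with a fixed anchor-drug dose plus five library-drug doses (not always all listed) in √10 steps, and nuclei were counted after 5 days.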

TGX 221 + Lapatinib = compound: CC1=CN2C(=O)C=C(N=C2C(=C1)C(C)NC3=CC=CC=C3)N4CCOCC4 [TGX 221] + CS(=O)(=O)CCNCc1ccc(-c2ccc3ncnc(Nc4ccc(OCc5cccc(F)c5)c(Cl)c4)c3c2)o1 [Lapatinib] (partner 2 µM)
Outline: as §1

[2] = compound: C1=CC=C(C(=C1)C2=CC=C(C=C2)C3=CSC4=C3C(=C(C(=O)N4)C#N)O)O + NC(=O)Nc1cc(-c2cccc(F)c2)sc1C(=O)N[C@H]1CCCNC1 [AZD7762] (partner 0.2 µM)
Outline: as §1

[3] = compound: C1=CC=C(C(=C1)C2=CC=C(C=C2)C3=CSC4=C3C(=C(C(=O)N4)C#N)O)O + CCNC(=O)c1noc(-c2cc(C(C)C)c(O)cc2O)c1-c1ccc(CN2CCOCC2)cc1 [Luminespib] (partner 0.01 µM)
Outline: as §1

Cell Line	relative viability ([1]; first compound 0.08 µM)	relative viability ([1]; first compound 0.253 µM)	relative viability ([1]; first compound 0.8 µM)	relative viability ([1]; first compound 2.53 µM)	relative viability ([1]; first compound 8 µM)	relative viability (TGX 221 + Lapatinib; first compound 0.08 µM)	relative viability (TGX 221 + Lapatinib; first compound 0.253 µM)	relative viability (TGX 221 + Lapatinib; first compound 0.8 µM)	relative viability (TGX 221 + Lapatinib; first compound 2.53 µM)	relative viability (TGX 221 + Lapatinib; first compound 8 µM)	relative viability ([2]; first compound 0.253 µM)	relative viability ([2]; first compound 0.8 µM)	relative viability ([2]; first compound 2.53 µM)	relative viability ([2]; first compound 8 µM)	relative viability ([3]; first compound 0.08 µM)	relative viability ([3]; first compound 0.253 µM)	relative viability ([3]; first compound 0.8 µM)	relative viability ([3]; first compound 2.53 µM)	relative viability ([3]; first compound 8 µM)	relative viability ([2]; first compound 0.08 µM)
Calu-6	0.614	0.967	0.726	0.863	0.635	0.929	0.916	1.04	1.17	0.962	–	–	–	–	–	–	–	–	–	–
A549	0.493	0.998	0.688	0.885	0.55	0.939	0.914	0.966	1.04	0.748	–	–	–	–	–	–	–	–	–	–
HCC-366	0.245	0.779	0.614	0.599	0.285	1.02	1	0.875	1.04	1.04	0.342	0.259	0.281	0.273	–	–	–	–	–	–
NCI-H2023	0.546	0.759	0.607	0.701	0.538	0.79	0.718	0.73	0.689	0.769	–	–	–	–	0.59	0.752	0.767	0.956	0.643	–
SK-LU-1	0.895	0.995	0.837	0.85	0.661	0.883	0.951	0.754	0.898	0.682	–	–	–	–	0.195	0.217	0.217	0.175	0.218	–
SK-MES-1	1.05	1.05	0.905	1.05	0.951	0.487	0.414	0.422	0.39	0.381	–	–	–	–	0.766	0.822	0.763	0.622	0.633	–
NCI-H1703	0.452	0.811	0.827	0.844	0.56	1.02	0.974	0.95	0.859	0.757	0.147	0.111	0.15	0.148	–	–	–	–	–	0.113
NCI-H1299	0.878	1.02	0.987	0.968	0.947	0.987	0.99	0.978	1.03	0.894	–	–	–	–	–	–	–	–	–	–
NCI-H441	0.738	0.873	0.839	0.777	0.525	–	–	–	–	–	1.17	1.33	1.57	1.02	0.344	0.352	0.269	0.308	0.344	1.02
COR-L 105	0.712	1.04	0.646	0.778	0.646	0.409	0.333	0.394	0.394	0.325	–	–	–	–	0.881	0.821	0.722	0.625	0.752	–
ChaGo-K-1	1.06	1.43	1.31	1.17	0.817	–	–	–	–	–	0.936	0.904	0.92	0.838	0.706	0.628	0.684	0.597	0.604	0.834
SW 1573	0.683	0.796	0.897	0.797	0.61	1.01	1.01	1.1	0.852	1.12	–	–	–	–	0.192	0.105	0.147	0.219	0.275	–
EBC-1	0.202	0.21	0.19	0.199	0.191	0.203	0.212	0.203	0.226	0.234	–	–	–	–	–	–	–	–	–	–
NCI-H1650	–	1.16	0.943	1.06	0.919	0.654	0.64	0.617	0.759	0.581	–	–	–	–	0.195	0.197	0.175	0.208	0.2	–
NCI-H1648	–	–	–	–	–	–	–	–	–	–	0.676	0.734	0.689	0.608	–	–	–	–	–	–
NCI-H1395	–	–	–	–	–	0.926	0.862	0.751	0.804	0.714	0.397	0.395	0.353	0.419	0.933	0.683	0.658	0.641	0.5	–
SW 900	–	–	–	–	–	–	–	–	–	–	0.625	0.607	0.692	0.563	0.161	0.174	0.186	0.135	0.192	–
NCI-H2228	0.385	0.505	0.495	0.33	0.392	0.948	1.46	0.909	0.759	0.751	–	–	–	–	0.14	0.163	0.105	0.135	0.186	–
IA-LM	0.826	0.914	0.714	0.882	0.439	0.783	0.797	0.979	1.01	0.612	–	–	–	–	–	–	–	–	–	–
NCI-H661	–	1.11	0.94	1.07	0.952	0.486	0.376	0.439	0.382	0.394	–	–	–	–	0.808	0.985	0.964	0.9	0.898	–
